US20230364070A1, “PYRROLO[3,2-C]PYRIDIN-4-ONE DERIVATIVES USEFUL IN THE TREATMENT OF CANCER” (Scorpion Therapeutics, Inc., priority 2020, published 2023)

Columns and labels:
Type in all cases: cell-based
[1] = molecular target: T1, pEGFR in Ba/F3 cells expressing EGFR exon 20 NPG Ins D770_N771 (Homo sapiens, UniProt P00533, INS770NPG); assay: Inhibitor activity on EGFR phosphorylation (pEGFR AlphaLISA, 2 h), Ba/F3 EGFR exon 20 NPG insertion; conditions: Ba/F3 EGFR exon 20 NPG Ins D770_N771
T1 construct: expressed in transfected cells; host or cells: Ba/F3 (murine pro-B cells), retroviral transduction, puromycin selection, IL3-independent pool

pEGFR in CUTO14 cells = molecular target: T2, pEGFR in CUTO14 cells (Homo sapiens, UniProt P00533, DUP767-769); assay: Inhibitor activity on EGFR phosphorylation (pEGFR AlphaLISA, 2 h), CUTO14 cells
T2 construct: endogenous in cells; host or cells: CUTO14 cells
Experimental: CUTO14 cells were obtained from Dr. Robert C. Doebele at the University of Colorado.
Shake 350 rpm for 1 hr in the dark • 3.4 Prepare donor mix under low light conditions prior to use. Dispense 5 μL of donor mix to all the wells. Mix well on the shaker, seal and wrap in aluminum foil and incubate 1.5 hrs at room temperature in the dark • 3.5 Transfer 18.5 μL mixture to OptiPlate 384, and read using an Envision.

[2] = molecular target: T3, pEGFR in Ba/F3 cells expressing EGFR exon 20 ASV Ins V769_D770 (Homo sapiens, UniProt P00533, INS769ASV); assay: Inhibitor activity on EGFR phosphorylation (pEGFR AlphaLISA, 2 h), Ba/F3 EGFR exon 20 ASV insertion; conditions: Ba/F3 EGFR exon 20 ASV Ins V769_D770
T3 construct: expressed in transfected cells; host or cells: Ba/F3 (murine pro-B cells), retroviral transduction, puromycin selection, IL3-independent pool

[3] = molecular target: T4, Ba/F3 cells with EGFR exon 20 ASV Ins V769_D770 (Homo sapiens, UniProt P00533, INS769ASV); assay: EGFR activity: Ba/F3 cell viability (CellTiter-Glo, 72 h), EGFR exon 20 ASV insertion; conditions: EGFR exon 20 ASV Ins V769_D770, cell viability, read-out: BaF3 ASV IC50
T4 construct: expressed in transfected cells; host or cells: Ba/F3 (murine pro-B cells), retroviral transduction, puromycin selection, IL3-independent pool

[4] = molecular target: T5, Ba/F3 cells with EGFR exon 20 NPG Ins D770_N771 (Homo sapiens, UniProt P00533, INS770NPG); assay: EGFR activity: Ba/F3 cell viability (CellTiter-Glo, 72 h), EGFR exon 20 NPG insertion; conditions: EGFR exon 20 NPG Ins D770_N771, cell viability, read-out: BaF3 NPG IC50
T5 construct: expressed in transfected cells; host or cells: Ba/F3 (murine pro-B cells), retroviral transduction, puromycin selection, IL3-independent pool

Ba/F3 cells with EGFR WT = molecular target: T6, Ba/F3 cells with EGFR WT (Homo sapiens, UniProt P00533); assay: EGFR activity: Ba/F3 cell viability (CellTiter-Glo, 72 h), EGFR WT; conditions: read-out: BaF3 WT IC50
T6 construct: expressed in transfected cells; host or cells: Ba/F3 (murine pro-B cells), retroviral transduction, puromycin selection, maintained with EGF

T2 sequence (P00533 with tags, fused parts or gaps DUP767-769): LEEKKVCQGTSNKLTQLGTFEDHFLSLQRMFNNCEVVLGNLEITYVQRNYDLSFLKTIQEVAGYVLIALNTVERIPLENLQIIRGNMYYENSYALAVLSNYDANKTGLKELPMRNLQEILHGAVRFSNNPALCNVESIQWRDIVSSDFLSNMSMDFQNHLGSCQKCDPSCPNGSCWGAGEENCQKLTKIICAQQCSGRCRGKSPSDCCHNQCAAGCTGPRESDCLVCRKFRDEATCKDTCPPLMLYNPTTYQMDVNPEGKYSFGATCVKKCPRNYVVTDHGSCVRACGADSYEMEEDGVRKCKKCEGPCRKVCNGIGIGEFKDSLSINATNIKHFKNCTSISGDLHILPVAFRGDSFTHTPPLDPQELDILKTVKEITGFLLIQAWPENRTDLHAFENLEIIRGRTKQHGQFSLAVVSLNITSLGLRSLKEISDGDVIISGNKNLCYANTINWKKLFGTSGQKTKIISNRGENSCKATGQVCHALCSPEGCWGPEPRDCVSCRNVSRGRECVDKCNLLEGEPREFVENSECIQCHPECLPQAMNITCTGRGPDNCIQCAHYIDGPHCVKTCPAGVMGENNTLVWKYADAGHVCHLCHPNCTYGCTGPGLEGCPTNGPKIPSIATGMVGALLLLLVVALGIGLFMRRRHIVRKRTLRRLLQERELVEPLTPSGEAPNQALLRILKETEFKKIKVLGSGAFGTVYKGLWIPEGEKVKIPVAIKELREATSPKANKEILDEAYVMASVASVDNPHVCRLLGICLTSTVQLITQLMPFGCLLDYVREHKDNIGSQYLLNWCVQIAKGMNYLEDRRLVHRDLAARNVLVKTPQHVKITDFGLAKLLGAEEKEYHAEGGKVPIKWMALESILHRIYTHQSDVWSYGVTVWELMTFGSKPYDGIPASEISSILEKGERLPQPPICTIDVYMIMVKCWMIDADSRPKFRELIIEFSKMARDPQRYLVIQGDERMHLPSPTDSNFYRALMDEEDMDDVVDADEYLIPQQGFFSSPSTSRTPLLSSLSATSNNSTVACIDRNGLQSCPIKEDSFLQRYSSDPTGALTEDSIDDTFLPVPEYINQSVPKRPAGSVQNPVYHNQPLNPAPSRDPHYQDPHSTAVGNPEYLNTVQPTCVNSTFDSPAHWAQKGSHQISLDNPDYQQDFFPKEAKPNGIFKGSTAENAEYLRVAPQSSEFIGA
T3 sequence (P00533 with tags, fused parts or gaps INS769ASV): as the sequence (P00533 with tags, fused parts or gaps DUP767-769) above
T4 sequence (P00533 with tags, fused parts or gaps INS769ASV): as the sequence (P00533 with tags, fused parts or gaps DUP767-769) above
T1 sequence (P00533 with tags, fused parts or gaps INS770NPG): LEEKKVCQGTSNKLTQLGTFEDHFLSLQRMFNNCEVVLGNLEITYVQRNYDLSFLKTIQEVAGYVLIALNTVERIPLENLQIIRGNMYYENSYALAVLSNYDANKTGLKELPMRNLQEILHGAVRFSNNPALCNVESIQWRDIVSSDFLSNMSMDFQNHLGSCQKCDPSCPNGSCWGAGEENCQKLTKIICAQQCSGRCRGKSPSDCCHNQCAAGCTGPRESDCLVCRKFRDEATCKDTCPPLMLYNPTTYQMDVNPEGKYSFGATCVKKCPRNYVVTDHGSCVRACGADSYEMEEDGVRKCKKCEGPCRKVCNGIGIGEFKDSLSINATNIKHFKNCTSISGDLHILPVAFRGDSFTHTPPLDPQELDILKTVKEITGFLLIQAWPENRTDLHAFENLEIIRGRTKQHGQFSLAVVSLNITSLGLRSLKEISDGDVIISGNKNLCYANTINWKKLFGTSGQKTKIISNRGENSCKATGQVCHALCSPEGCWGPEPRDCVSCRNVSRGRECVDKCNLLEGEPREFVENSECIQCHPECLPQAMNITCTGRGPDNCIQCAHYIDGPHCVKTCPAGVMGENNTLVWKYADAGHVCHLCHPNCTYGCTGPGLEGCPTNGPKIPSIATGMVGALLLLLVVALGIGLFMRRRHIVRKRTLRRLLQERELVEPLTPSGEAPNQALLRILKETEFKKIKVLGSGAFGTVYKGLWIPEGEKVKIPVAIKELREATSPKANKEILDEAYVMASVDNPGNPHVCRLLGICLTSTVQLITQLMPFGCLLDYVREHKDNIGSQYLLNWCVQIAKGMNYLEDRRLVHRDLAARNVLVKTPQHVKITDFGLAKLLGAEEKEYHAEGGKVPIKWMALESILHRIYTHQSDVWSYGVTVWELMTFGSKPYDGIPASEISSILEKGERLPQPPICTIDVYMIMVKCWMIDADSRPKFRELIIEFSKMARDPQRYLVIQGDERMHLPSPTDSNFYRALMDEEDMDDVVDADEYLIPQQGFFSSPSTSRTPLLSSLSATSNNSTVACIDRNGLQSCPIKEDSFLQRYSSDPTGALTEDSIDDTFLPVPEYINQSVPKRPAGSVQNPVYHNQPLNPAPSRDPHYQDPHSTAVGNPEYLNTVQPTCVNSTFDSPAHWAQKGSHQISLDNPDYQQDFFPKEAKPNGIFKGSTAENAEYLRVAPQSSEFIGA

IC50 [1] [nM]	IC50 (pEGFR in CUTO14 cells) [nM]	IC50 [2] [nM]	SMILES	IC50 [3] [nM]	IC50 [4] [nM]	IC50 (Ba/F3 cells with EGFR WT) [nM]
< 100	< 100	< 100	C=CC(=O)N1CC[C@H]1COc1cnccc1-c1[nH]c2c(c1Nc1cccc(Cl)c1OC)C(=O)NCC2 [145b, 3-[(3-chloro-2-methoxyphenyl)amino]-2-(3-[[(2S)-1-(prop-2-enoyl)azetidin-2-yl]methoxy]pyridin-4-yl)-1H,5H,6H,7H-pyrrolo[3,2-c]pyridin-4-one]	–	–	–
< 100	< 100	< 100	C=CC(=O)N1CC[C@@H]1COc1cnccc1-c1[nH]c2c(c1Nc1cccc(Cl)c1OC)C(=O)NCC2 [Compound 145a, (R)-2-(3-((1-acryloylazetidin-2-yl)methoxy)pyridin-4-yl)-3-((3-chloro-2-methoxyphenyl)amino)-1,5,6,7-tetrahydro-4H-pyrrolo[3,2-c]pyridin-4-one]	< 100	< 100	100 to 1000
< 100	< 100	< 100	C=CC(=O)N1CCC[C@H]1C#Cc1cnccc1-c1[nH]c2c(c1Nc1cccc(F)c1OC)C(=O)NCC2 [Compound 147a, (S)-2-(3-((1-acryloylpyrrolidin-2-yl)ethynyl)pyridin-4-yl)-3-((3-fluoro-2-methoxyphenyl)amino)-1,5,6,7-tetrahydro-4H-pyrrolo[3,2-c]pyridin-4-one]	< 100	< 100	< 100
< 100	< 100	< 100	C=CC(=O)N1CCC[C@@H]1C#Cc1cnccc1-c1[nH]c2c(c1Nc1cccc(F)c1OC)C(=O)NCC2 [Compound 147b, (R)-2-(3-((1-acryloylpyrrolidin-2-yl)ethynyl)pyridin-4-yl)-3-((3-fluoro-2-methoxyphenyl)amino)-1,5,6,7-tetrahydro-4H-pyrrolo[3,2-c]pyridin-4-one]	< 100	< 100	100 to 1000

Second part, the molecule before the results:

SMILES	IC50 [1] [nM]	IC50 (pEGFR in CUTO14 cells) [nM]	IC50 [2] [nM]	IC50 [3] [nM]	IC50 [4] [nM]	IC50 (Ba/F3 cells with EGFR WT) [nM]
C=CC(=O)N1CCC[C@@H]1COc1cnccc1-c1[nH]c2c(c1Nc1cccc(F)c1C)C(=O)NCC2 [Compound 140, (R)-2-(3-((1-acryloylpyrrolidin-2-yl)methoxy)pyridin-4-yl)-3-((3-fluoro-2-methylphenyl)amino)-1,5,6,7-tetrahydro-4H-pyrrolo[3,2-c]pyridin-4-one]	< 100	< 100	< 100	< 100	< 100	100 to 1000
C=CC(=O)N1CCC[C@H]1COc1cnccc1-c1[nH]c2c(c1Nc1cccc(F)c1C)C(=O)NCC2 [Compound 467, 3-[(3-fluoro-2-methylphenyl)amino]-2-(3-[[(2S)-1-(prop-2-enoyl)pyrrolidin-2-yl]methoxy]pyridin-4-yl)-1H,5H,6H,7H-pyrrolo[3,2-c]pyridin-4-one]	< 100	< 100	< 100	< 100	< 100	< 100
C=CC(=O)NC1(C#Cc2cnccc2-c2[nH]c3c(c2Nc2cccc(Cl)c2OC)C(=O)NCC3)CC1 [compound 207, N-{1-[2-(4-{3-[(3-chloro-2-methoxyphenyl)amino]-4-oxo-1H,5H,6H,7H-pyrrolo[3,2-c]pyridin-2-yl}pyridin-3-yl)ethynyl]cyclopropyl}prop-2-enamide]	< 100	< 100	< 100	–	–	–
C=CC(=O)N1CC(F)(F)C[C@@H]1C#Cc1cnccc1-c1[nH]c2c(c1Nc1cccc(Cl)c1OC)C(=O)NCC2 [compound 519, 3-[(3-chloro-2-methoxyphenyl)amino]-2-(3-[2-[(2R)-4,4-difluoro-1-(prop-2-enoyl)pyrrolidin-2-yl]ethynyl]pyridin-4-yl)-1H,5H,6H,7H-pyrrolo[3,2-c]pyridin-4-one]	< 100	< 100	< 100	–	–	–
COc1c(Cl)cccc1Nc1c(-c2ccncc2C#CC2(C(F)(F)F)CC2)[nH]c2c1C(=O)NCC2 [compound 528, 3-[(3-chloro-2-methoxyphenyl)amino]-2-(3-[2-[1-(trifluoromethyl)cyclopropyl]ethynyl]pyridin-4-yl)-1H,5H,6H,7H-pyrrolo[3,2-c]pyridin-4-one]	< 100	< 100	< 100	–	–	–
COc1c(Cl)cccc1Nc1c(-c2ccncc2C#CC2(C(F)F)CC2)[nH]c2c1C(=O)NCC2 [compound 546]	< 100	< 100	< 100	< 100	< 100	100 to 1000
